# Results published in patent publication US9029531B2 (Agios Pharmaceuticals, Inc., priority 2012, dated 2015).
# Target: T1, glutaminase (GAC) (Homo sapiens, UniProt O94925)
# T1 sequence (O94925 55-598 isoform O94925-3 limits assumed): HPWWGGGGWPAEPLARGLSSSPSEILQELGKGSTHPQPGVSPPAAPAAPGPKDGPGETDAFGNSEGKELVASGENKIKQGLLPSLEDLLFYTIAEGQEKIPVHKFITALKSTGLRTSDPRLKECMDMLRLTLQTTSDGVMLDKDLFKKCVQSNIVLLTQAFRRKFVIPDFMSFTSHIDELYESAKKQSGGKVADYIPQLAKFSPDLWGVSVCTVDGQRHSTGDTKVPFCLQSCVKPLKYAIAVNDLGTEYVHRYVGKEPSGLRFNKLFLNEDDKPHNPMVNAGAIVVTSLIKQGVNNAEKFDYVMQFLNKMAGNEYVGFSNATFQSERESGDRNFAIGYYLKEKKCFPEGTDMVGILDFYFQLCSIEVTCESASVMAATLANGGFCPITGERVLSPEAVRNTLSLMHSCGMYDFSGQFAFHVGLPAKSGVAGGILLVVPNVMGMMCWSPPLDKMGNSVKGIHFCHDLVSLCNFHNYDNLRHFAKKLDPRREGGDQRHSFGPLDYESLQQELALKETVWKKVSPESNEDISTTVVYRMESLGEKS
# Test: Glutaminase coupled endpoint enzymatic assay (Example A)
# Format: biochemical
# Settings: inhibition of glutaminase; assay of Example A or Example B
# How it was run: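 Endpoint coupled assay: glutamate formed by GAC drives GDH NADH production, recycled by diaphorase reducing resazurin to fluorescent resorufin (Ex544/Em590) after SDS stop. Buffer pH 8.5 with phosphate; glutamine at Km; enzyme preincubated with compound 60 min at room temperature.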
row,SMILES,IC50 [µM]
1,"O=C(Cc1cccnn1)Nc1nnc([C@H]2CCC[C@H](c3nnc(NC(=O)Cc4cccnn4)s3)C2)s1 [Compound 231, N,N′-(5,5′-((1S,3S)-cyclohexane-1,3-diyl)bis(1,3,4-thiadiazole-5,2-diyl))bis(2-(pyridazin-3-yl)acetamide)]",0.1 to 0.5
2,"COc1ccccc1CC(=O)Nc1nnc([C@H]2CCC[C@H](c3nnc(NC(C)=O)s3)C2)s1 [Compound 94, N-(5-((1S,3S)-3-(5-acetamido-1,3,4-thiadiazol-2-yl)cyclohexyl)-1,3,4-thiadiazol-2-yl)-2-(2-methoxyphenyl)acetamide]",< 0.1
3,"O=C(Cc1csc(N2CCOCC2)n1)Nc1nnc([C@H]2CCC[C@H](c3nnc(NC(=O)Cc4csc(N5CCOCC5)n4)s3)C2)s1 [Compound 276, N,N′-(5,5′-((1S,3S)-cyclohexane-1,3-diyl)bis(1,3,4-thiadiazole-5,2-diyl))bis(2-(2-morpholinothiazol-4-yl)acetamide)]",0.1 to 0.5
4,"Nc1ccccc1CC(=O)Nc1nnc([C@H]2CCC[C@H](c3nnc(NC(=O)Cc4ccccc4N)s3)C2)s1 [Compound 56, N,N′-(5,5′-((1S,3S)-cyclohexane-1,3-diyl)bis(1,3,4-thiadiazole-5,2-diyl))bis(2-(2-aminophenyl)acetamide)]",< 0.1
5,COc1cccc(CC(=O)Nc2nnc([C@@H]3CC[C@H](c4nnc(NC(=O)Cc5cccc(OC)c5)s4)C3)s2)c1 [Compound 107],0.1 to 0.5
6,"O=C(Cc1ccccc1)Nc1nnc([C@@H]2CCC[C@@H](c3nnc(NC(=O)Cc4ccccc4)s3)C2)s1 [Compound 11, N,N′-(5,5′-((1R,3R)-cyclohexane-1,3-diyl)bis(1,3,4-thiadiazole-5,2-diyl))bis(2-phenylacetamide)]",< 0.1
7,"CN(C)c1cccc(CC(=O)Nc2nnc([C@H]3CC[C@H](c4nnc(NC(=O)Cc5cccc(N(C)C)c5)s4)C3)s2)c1 [Compound 285, N,N′-(5,5′-((1S,3S)-cyclopentane-1,3-diyl)bis(1,3,4-thiadiazole-5,2-diyl))bis(2-(3-(dimethylamino)phenyl)acetamide)]",< 0.1
8,"O=C(Cc1ccc(N2CC(F)(F)C2)cn1)Nc1nnc([C@H]2CCC[C@H](c3nnc(NC(=O)Cc4ccc(N5CC(F)(F)C5)cn4)s3)C2)s1 [Compound 252, N,N′-(5,5′-((1S,3S)-cyclohexane-1,3-diyl)bis(1,3,4-thiadiazole-5,2-diyl))bis(2-(5-(3,3-difluoroazetidin-1-yl)pyridin-2-yl)acetamide)]",< 0.1
9,"COc1ccc(CC(=O)Nc2nnc([C@H]3CCC[C@H](c4nnc(NC(=O)Cc5ccc(OC)nc5)s4)C3)s2)cn1 [Compound 221, N,N′-(5,5′-((1S,3S)-cyclohexane-1,3-diyl)bis(1,3,4-thiadiazole-5,2-diyl))bis(2-(6-methoxypyridin-3-yl)acetamide)]",< 0.1
10,COc1ccnc(CC(=O)Nc2nnc([C@@H]3CCC[C@@H](c4nnc(NC(=O)Cc5cc(OC)ccn5)s4)C3)s2)c1 [Compound 119],< 0.1
11,"O=C(Cc1ccccn1)Nc1nnc([C@@H]2CCC[C@H](c3nnc(NC(=O)Cc4ccccn4)s3)C2)s1 [Compound 20, N,N′-(5,5′-((1R,3S)-cyclohexane-1,3-diyl)bis(1,3,4-thiadiazole-5,2-diyl))bis(2-(pyridin-2-yl)acetamide)]",1 to 2
12,"O=C(Cc1cscn1)Nc1nnc([C@H]2CCC[C@H](c3nnc(NC(=O)Cc4cscn4)s3)C2)s1 [Compound 222, N,N′-(5,5′-((1S,3S)-cyclohexane-1,3-diyl)bis(1,3,4-thiadiazole-5,2-diyl))bis(2-(thiazol-4-yl)acetamide)]",< 0.1
13,"O=C(Cc1cccc2[nH]ccc12)Nc1nnc([C@H]2CCC[C@H](c3nnc(NC(=O)Cc4cccc5[nH]ccc45)s3)C2)s1 [Compound 24, N,N′-(5,5′-((1S,3S)-cyclohexane-1,3-diyl)Obis(1,3,4-thiadiazole-5,2-diyl))bis(2-(1H-indol-4-yl)acetamide)]",< 0.1
14,"COc1cccc(CC(=O)Nc2nnc([C@H]3CCC[C@H](c4nnc(NC(=O)Cc5ccccn5)s4)C3)s2)c1 [Compound 81, 2-(3-methoxyphenyl)-N-(5-((1S,3S)-3-(5-(2-(pyridin-2-yl)acetamido)-1,3,4-thiadiazol-2-yl)cyclohexyl)-1,3,4-thiadiazol-2-yl)acetamide]",< 0.1
15,"O=C(Cc1ccc(N2CCOCC2)cc1)Nc1nnc([C@H]2CCC[C@H](c3nnc(NC(=O)Cc4ccc(N5CCOCC5)cc4)s3)C2)s1 [Compound 265, N,N′-(5,5′-((1S,3S)-cyclohexane-1,3-diyl)bis(1,3,4-thiadiazole-5,2-diyl))bis(2-(4-morpholinophenyl)acetamide)]",0.1 to 0.5
16,O=C(Cc1cccc([N+](=O)[O-])c1)Nc1nnc(C2CCC(c3nnc(NC(=O)Sc4cccc([N+](=O)[O-])c4)s3)C2)s1 (stereo not shown) [Compound 110],0.1 to 0.5
17,N#Cc1ccccc1CC(=O)Nc1nnc(C2CCCCC(c3nnc(NC(=O)Cc4ccccc4C#N)s3)C2)s1 (stereo not shown) [Compound 127],0.5 to 1
18,"O=C(Cc1cccc(N2CC(F)C2)n1)Nc1nnc([C@H]2CCC[C@H](c3nnc(NC(=O)Cc4cccc(N5CC(F)C5)n4)s3)C2)s1 [Compound 251, N,N′-(5,5′-((1S,3S)-cyclohexane-1,3-diyl)bis(1,3,4-thiadiazole-5,2-diyl))bis(2-(6-(3-fluoroazetidin-1-yl)pyridin-2-yl)acetamide)]",< 0.1
19,"O=C(Cc1cccs1)Nc1nnc([C@H]2CCC[C@H](c3nnc(NC(=O)Cc4cccs4)s3)C2)s1 [Compound 59, N,N′-(5,5′-((1S,3S)-cyclohexane-1,3-diyl)bis(1,3,4-thiadiazole-5,2-diyl))bis(2-(thiophen-2-yl)acetamide)]",< 0.1
20,"COc1ccc(CC(=O)Nc2nnc([C@@H]3CCC[C@@H](c4nnc(NC(=O)Cc5ccc(OC)cc5)s4)C3)s2)cc1 (stereo in doubt) [Compound 52, N,N′-(5,5′-((1S,3S)-cyclohexane-1,3-diyl)bis(1,3,4-thiadiazole-5,2-diyl))bis(2-(4-methoxyphenyl)acetamide)]",< 0.1
21,"O=C(Cc1ccccn1)Nc1nnc(C[C@H]2C[C@@H]2Cc2nnc(NC(=O)Cc3ccccn3)s2)s1 (racemic) [Compound 3, N,N′-(5,5′-(trans-cyclopropane-1,2-diylbis(methylene))bis(1,3,4-thiadiazole-5,2-diyl))bis(2-(pyridin-2-yl)acetamide)]",0.5 to 1
22,"Nc1nc(CC(=O)Nc2nnc([C@H]3CCC[C@H](c4nnc(NC(=O)Cc5csc(N)n5)s4)C3)s2)cs1 [Compound 274, N,N′-(5,5′-((1S,3S)-cyclohexane-1,3-diyl)bis(1,3,4-thiadiazole-5,2-diyl))bis(2-(2-aminothiazol-4-yl)acetamide)]",< 0.1
23,N#Cc1ccccc1CC(=O)Nc1nnc(C2CCC(c3nnc(NC(=O)Cc4ccccc4C#N)s3)C2)s1 (stereo not shown) [Compound 95],0.1 to 0.5
24,"O=C(Cc1cccc(N2CCCC2)c1)Nc1nnc([C@H]2CCC[C@H](c3nnc(NC(=O)Cc4cccc(N5CCCC5)c4)s3)C2)s1 [Compound 260, N,N′-(5,5′-((1S,3S)-cyclohexane-1,3-diyl)bis(1,3,4-thiadiazole-5,2-diyl))bis(2-(3-(pyrrolidin-1-yl)phenyl)acetamide)]",0.1 to 0.5
25,"O=C(Cc1cccc(N2CCOCC2)c1)Nc1nnc([C@H]2CCC[C@H](c3nnc(NC(=O)Cc4cccc(N5CCOCC5)c4)s3)C2)s1 [Compound 262, N,N′-(5,5′-((1S,3S)-cyclohexane-1,3-diyl)bis(1,3,4-thiadiazole-5,2-diyl))bis(2-(3-morpholinophenyl)acetamide)]",< 0.1
